{"source": "patent US8642834B2", "about": "“Methods for the identification of agents that inhibit mesenchymal-like tumor cells or their formation” (OSI Pharmaceuticals, LLC, priority 2009, dated 2014)", "format_in_all_cases": "cell-based, human", "key": {"CFPAC1 cells [1]": {"system": "CFPAC1 cells", "assay": "Transcriptional changes to EMT genes, qPCR", "method": "The CFPAC1 cell line was cultured in DMEM media (Gibco #11960) supplemented with 10% FBS (Sigma), 2 mM L Glutamine (Gibco), at 37° C., 5% CO2. For 7 day treatments, cells were seeded on tissue culture plastic in complete growth media and allowed to attach overnight at cell densities that would provide approximately 60-80% confluence at end of experiment. Ligand and/or inhibitor was added the following day (Day 0) in complete growth media and incubated at 37° C., 5% CO2. Ligand source and concentrations used are as follows: [1] From R&D systems, SDF-1α (stromal derived factor-1 alpha) at 100 ng/ml, TRANCE (TNF-related activation induced cytokine) at 50 ng/ml, FGF1 (fibroblast growth factor acidic) at 10 ng/ml, FGF2 (fibroblast growth factor basic) at 10 ng/ml, BMP4 (bone morphogenetic protein 4) at 100 ng/ml, BMP7 (bone morphogenetic protein 7) at 100 ng/ml, IGF2 (insulin-like growth factor 2) at 100 ng/ml, OSM (Oncostatin M) at 100 ng/ml, NRG1 (Neuregulin-1) at 50 ng/ml, PDGFaa (Platelet derived growth factor a) at 50 ng/ml, PDGFbb (platelet derive growth factor b) at 30 ng/ml, Ang2 (Angiopoeitin 2) at 400 ng/ml, amphiregulin at 100 ng/ml, HMGB 1 (Human high-mobility group box 1 protein) at 50 ng/ml; [2] From Genscript, LIF (Leukemia inhibitory factor) at 20 ng/ml, GM-CSF (Granulocyte macrophage colony stimulating factor) at 25 ng/ml, M-CSF (Macrophage colony stimulating factor) at 50 ng/ml; [3] From Anaspec, PAR1 (Protease activated receptor 1 agonist) at 100 μM; PAR2 (Protease activated receptor 2 agonist; peptide SLIGKV-NH2, Cat. No. 60217-1) at 100 μM; PAR4 (Protease activated receptor […] agonist; peptide AYPGKF-NH2, Cat. No. 60218-1) at 100 μM; [4] From Peprotech, HGF (Hepatocyte Growth Factor) at 100 ng/ml; IL-31 (Interleukin-31) at 50 ng/ml, IL-33 (Interleukin-33) at 50 ng/ml, IL1-a (Interleukin-1 alpha) at 10 ng/ml, CTGF (Connective tissue growth factor) at 20 ng/ml, WISP1 (Wnt-1 inducible signaling pathway protein) at 20 ng/ml, PTHrP ([…] hormone-related protein) at 50 ng/ml, MCP1 (monocyte chemotactic protein-1) at 50 ng/ml; and [5] from Sigma, Fulvestrant at 1 μM. Fresh medium containing ligand and/or inhibitor was added 3-4 days after initial dose, and at Day 7 cells were harvested for western blot analysis.\nCells were plated and treated with ligand for one or 7 days. At the time of harvest, cells were trypsinized and snap frozen for later use. Total RNA was isolated using RNAqueous-4 PCR Kit (Ambion, AM1914). For qPCR on tumor material, the tumor samples were homogenized using a small tissue homogenizer (Ultra-Turrax T8 from IKA-Werke) in 175ul RNA lysis buffer. Homogenization was for 1 minute on ice. RNA was isolated using the SV Total RNA Isolation System (Promega Cat #Z3100) according to the manufactures instructions. Samples were DNase treated using the Turbo DNA-Free kit (Ambion, AM1907) and reverse transcribed using Superscript III (Invitrogen, 18080-044) for qPCR analysis. Taqman primers and Locked-Nucleic Acid probes were designed using ProbeFinder software (Universal Probe library, Roche). For mRNA analysis, real time PCR was performed using the ABI 7900HT series PCR machine. Thermocycle conditions were as follows: 50° C. for 2 minutes, 95° C. for 10 minutes, 95° C. for 15 seconds, 50° C. for 10 seconds, 60° C. for 1 minute. Data was collected over 45 cycles and then normalized to GAPDH and further normalized to the untreated control sample."}, "CFPAC1 cells [2]": {"system": "CFPAC1 cells", "assay": "Doubling time after ligand treatment", "conditions": "after 7 day ligand treatment, versus untreated", "method": "Cells were plated and treated with ligand for 7 days. On day 7, cells were counted and re-plated on 6 cm cell culture dishes. On days 3, 5, 7, 10 and 12, cells were trypsinized and counted to determine the total number of cells in the dish, in duplicate. Doubling time was calculated using the multiple time point method on the website www.doubling-time.com."}, "CFPAC-1 cells [3]": {"system": "CFPAC-1 cells", "assay": "MET/EMT reversion experiment (ligand withdrawal)", "conditions": "ligand 14 days, then removed; morphology and E-cadherin/vimentin immunoblot", "method": "Cells were cultured in complete medium with and without ligand for 14 days, during which time the media and ligand treatment was replaced every 3-4 days. 3 Days prior to the first time point (Day 14), cells were trypsinised, counted and seeded into plastic 35 mm dishes at appropriate seeding densities for the first 3 collection time points. 3 Days prior to the last of the 3 collection time points, the procedure was repeated for the second 3 collection time points, and so on until all time points were collected. Ligand was removed from all cultures at Day 14. At the time of harvest, cells were harvested as described in the western blotting section above. All samples were micro-centrifuged and stored at −80° C. until the end of the experiment, at which time all samples were processed for western blotting."}, "CFPAC-1 cells [4]": {"system": "CFPAC-1 cells", "assay": "Cell morphology by light microscopy", "conditions": "treated 7 days; versus untreated cells that formed colonies", "method": "The CFPAC1 cell line was cultured in DMEM media (Gibco #11960) supplemented with 10% FBS (Sigma), 2 mM L Glutamine (Gibco), at 37° C., 5% CO2. For 7 day treatments, cells were seeded on tissue culture plastic in complete growth media and allowed to attach overnight at cell densities that would provide approximately 60-80% confluence at end of experiment. Ligand and/or inhibitor was added the following day (Day 0) in complete growth media and incubated at 37° C., 5% CO2. Ligand source and concentrations used are as follows: [1] From R&D systems, SDF-1α (stromal derived factor-1 alpha) at 100 ng/ml, TRANCE (TNF-related activation induced cytokine) at 50 ng/ml, FGF1 (fibroblast growth factor acidic) at 10 ng/ml, FGF2 (fibroblast growth factor basic) at 10 ng/ml, BMP4 (bone morphogenetic protein 4) at 100 ng/ml, BMP7 (bone morphogenetic protein 7) at 100 ng/ml, IGF2 (insulin-like growth factor 2) at 100 ng/ml, OSM (Oncostatin M) at 100 ng/ml, NRG1 (Neuregulin-1) at 50 ng/ml, PDGFaa (Platelet derived growth factor a) at 50 ng/ml, PDGFbb (platelet derive growth factor b) at 30 ng/ml, Ang2 (Angiopoeitin 2) at 400 ng/ml, amphiregulin at 100 ng/ml, HMGB 1 (Human high-mobility group box 1 protein) at 50 ng/ml; [2] […]"}}, "data": [{"substance": "HGF: Hepatocyte Growth Factor from Peprotech, used at 100 ng/ml", "values": [{"measurement": "ACTN1 mRNA fold change", "setting": "CFPAC1 cells [1]; ligand 1 Day", "value": "NC (Only changes greater than 3 fold are reported. NC indicates no change.)"}, {"measurement": "CDH1 mRNA fold change", "setting": "CFPAC1 cells [1]; ligand 1 Day", "value": "NC (Only changes greater than 3 fold are reported. NC indicates no change.)"}, {"measurement": "CDH2 mRNA fold change", "setting": "CFPAC1 cells [1]; ligand 1 Day", "value": "NC (Only changes greater than 3 fold are reported. NC indicates no change.)"}, {"measurement": "ITGB3 mRNA fold change", "setting": "CFPAC1 cells [1]; ligand 1 Day", "value": "NC (Only changes greater than 3 fold are reported. NC indicates no change.)"}, {"measurement": "MMP7 mRNA fold change", "setting": "CFPAC1 cells [1]; ligand 1 Day", "value": "NC (Only changes greater than 3 fold are reported. NC indicates no change.)"}, {"measurement": "MTA3 mRNA fold change", "setting": "CFPAC1 cells [1]; ligand 1 Day", "value": "NC (Only changes greater than 3 fold are reported. NC indicates no change.)"}, {"measurement": "PLAUR mRNA fold change", "setting": "CFPAC1 cells [1]; ligand 1 Day", "value": "NC (Only changes greater than 3 fold are reported. NC indicates no change.)"}, {"measurement": "SNAI1 mRNA fold change", "setting": "CFPAC1 cells [1]; ligand 1 Day", "value": "NC (Only changes greater than 3 fold are reported. NC indicates no change.)"}, {"measurement": "SNAI2 mRNA fold change", "setting": "CFPAC1 cells [1]; ligand 1 Day", "value": "NC (Only changes greater than 3 fold are reported. NC indicates no change.)"}, {"measurement": "SPARC mRNA fold change", "setting": "CFPAC1 cells [1]; ligand 1 Day", "value": "NC (Only changes greater than 3 fold are reported. NC indicates no change.)"}, {"measurement": "TWIST1 mRNA fold change", "setting": "CFPAC1 cells [1]; ligand 1 Day", "value": "NC (Only changes greater than 3 fold are reported. NC indicates no change.)"}, {"measurement": "VIM mRNA fold change", "setting": "CFPAC1 cells [1]; ligand 1 Day", "value": "NC (Only changes greater than 3 fold are reported. NC indicates no change.)"}, {"measurement": "ZEB1 mRNA fold change", "setting": "CFPAC1 cells [1]; ligand 1 Day", "value": "NC (Only changes greater than 3 fold are reported. NC indicates no change.)"}, {"measurement": "ZEB2 mRNA fold change", "setting": "CFPAC1 cells [1]; ligand 1 Day", "value": "NC (Only changes greater than 3 fold are reported. NC indicates no change.)"}, {"measurement": "ACTN1 mRNA fold change", "setting": "CFPAC1 cells [1]; ligand 7 Day", "value": "NC (Only changes greater than 3 fold are reported. NC indicates no change.)"}, {"measurement": "CDH1 mRNA fold change", "setting": "CFPAC1 cells [1]; ligand 7 Day", "value": "NC (Only changes greater than 3 fold are reported. NC indicates no change.)"}, {"measurement": "CDH2 mRNA fold change", "setting": "CFPAC1 cells [1]; ligand 7 Day", "value": "NC (Only changes greater than 3 fold are reported. NC indicates no change.)"}, {"measurement": "ITGB3 mRNA fold change", "setting": "CFPAC1 cells [1]; ligand 7 Day", "value": 3.57, "unit": "fold"}, {"measurement": "MMP7 mRNA fold change", "setting": "CFPAC1 cells [1]; ligand 7 Day", "value": "NC (Only changes greater than 3 fold are reported. NC indicates no change.)"}, {"measurement": "MTA3 mRNA fold change", "setting": "CFPAC1 cells [1]; ligand 7 Day", "value": "NC (Only changes greater than 3 fold are reported. NC indicates no change.)"}, {"measurement": "PLAUR mRNA fold change", "setting": "CFPAC1 cells [1]; ligand 7 Day", "value": "NC (Only changes greater than 3 fold are reported. NC indicates no change.)"}, {"measurement": "SNAI1 mRNA fold change", "setting": "CFPAC1 cells [1]; ligand 7 Day", "value": "NC (Only changes greater than 3 fold are reported. NC indicates no change.)"}, {"measurement": "SNAI2 mRNA fold change", "setting": "CFPAC1 cells [1]; ligand 7 Day", "value": "NC (Only changes greater than 3 fold are reported. NC indicates no change.)"}, {"measurement": "SPARC mRNA fold change", "setting": "CFPAC1 cells [1]; ligand 7 Day", "value": "−5.41", "unit": "fold"}, {"measurement": "TWIST1 mRNA fold change", "setting": "CFPAC1 cells [1]; ligand 7 Day", "value": 612, "unit": "fold"}, {"measurement": "VIM mRNA fold change", "setting": "CFPAC1 cells [1]; ligand 7 Day", "value": "NC (Only changes greater than 3 fold are reported. NC indicates no change.)"}, {"measurement": "ZEB1 mRNA fold change", "setting": "CFPAC1 cells [1]; ligand 7 Day", "value": "NC (Only changes greater than 3 fold are reported. NC indicates no change.)"}, {"measurement": "ZEB2 mRNA fold change", "setting": "CFPAC1 cells [1]; ligand 7 Day", "value": "NC (Only changes greater than 3 fold are reported. NC indicates no change.)"}, {"measurement": "Effect on doubling time", "setting": "CFPAC1 cells [2]", "value": "did not increase the doubling time"}, {"measurement": "Reversal of EMT upon withdrawal of ligand", "setting": "CFPAC-1 cells [3]", "value": "can be reversed"}, {"measurement": "Cell morphology", "setting": "CFPAC-1 cells [4]", "value": "less compact with more elongated cell morphology"}]}]}
